According to PMC12136037, “Type II kinase inhibitors that target Parkinson’s disease–associated LRRK2” (Science Advances, 2025):

Legend:
Assay in all cases: 33PanQinase kinome-wide selectivity profile (Reaction Biology)
Assay type in all cases: biochemical
350 wild-type kinases [1] = target: T1, 350 wild-type kinases (Homo sapiens, UniProt P11802); conditions: singlicate; for Residual activity (% of control), CDK4/CycD1: kinase CDK4/CycD1; for Residual activity (% of control), CDK4/CycD1 / Residual activity (% of control), CDK4/CycD2: ATP 3 µM; for Residual activity (% of control), CDK4/CycD2: kinase CDK4/CycD2; for Residual activity (% of control), CDK4/CycD3: kinase CDK4/CycD3, ATP 10 µM
T1 construct: purchased Reaction Biology (assay service)
Experimental: (§1) Compound RN341 was tested at two concentrations of 1 and 10 μM against a panel of 350 wild-type kinases in the ^33PanQinase assay. The assay was performed by Reaction Biology (www.reactionbiology.com/services/kinase-assays/kinase-panel-screening/).

350 wild-type kinases [2] = target: T2, 350 wild-type kinases (Homo sapiens, UniProt P15056); conditions: kinase BRAF, ATP 1 µM, singlicate
T2 construct: purchased Reaction Biology (assay service)
Experimental: as §1

350 wild-type kinases [3] = target: T3, 350 wild-type kinases (Homo sapiens, UniProt P31749); conditions: kinase AKT1, ATP 1 µM, singlicate
T3 construct: purchased Reaction Biology (assay service)
Experimental: as §1

350 wild-type kinases [4] = target: T4, 350 wild-type kinases (Homo sapiens, UniProt P31751); conditions: kinase AKT2, ATP 10 µM, singlicate
T4 construct: purchased Reaction Biology (assay service)
Experimental: as §1

350 wild-type kinases [5] = target: T5, 350 wild-type kinases (Homo sapiens, UniProt P37023); conditions: kinase ACVRL1, ATP 1 µM, singlicate
T5 construct: purchased Reaction Biology (assay service)
Experimental: as §1

350 wild-type kinases [6] = target: T6, 350 wild-type kinases (Homo sapiens, UniProt P48729); conditions: kinase CK1alpha1, ATP 0,3 µM, singlicate
T6 construct: purchased Reaction Biology (assay service)
Experimental: as §1

350 wild-type kinases [7] = target: T7, 350 wild-type kinases (Homo sapiens, UniProt P50613); conditions: kinase CDK7/CycH/MAT1, ATP 1 µM, singlicate
T7 construct: purchased Reaction Biology (assay service)
Experimental: as §1

350 wild-type kinases [8] = target: T8, 350 wild-type kinases (Homo sapiens, UniProt P53355); conditions: kinase DAPK1, ATP 0,1 µM, singlicate
T8 construct: purchased Reaction Biology (assay service)
Experimental: as §1

350 wild-type kinases [9] = target: T9, 350 wild-type kinases (Homo sapiens, UniProt Q00526); conditions: ATP 3 µM, singlicate; for Residual activity (% of control), CDK3/CycC: kinase CDK3/CycC; for Residual activity (% of control), CDK3/CycE1: kinase CDK3/CycE1
T9 construct: purchased Reaction Biology (assay service)
Experimental: as §1

350 wild-type kinases [10] = target: T10, 350 wild-type kinases (Homo sapiens, UniProt Q00536); conditions: kinase CDK16/CycY, ATP 0,3 µM, singlicate
T10 construct: purchased Reaction Biology (assay service)
Experimental: as §1

350 wild-type kinases [11] = target: T11, 350 wild-type kinases (Homo sapiens, UniProt Q04771); conditions: kinase ACVR1, ATP 3 µM, singlicate
T11 construct: purchased Reaction Biology (assay service)
Experimental: as §1

350 wild-type kinases [12] = target: T12, 350 wild-type kinases (Homo sapiens, UniProt Q13554); conditions: kinase CAMK2B, ATP 3 µM, singlicate
T12 construct: purchased Reaction Biology (assay service)
Experimental: as §1

350 wild-type kinases [13] = target: T13, 350 wild-type kinases (Homo sapiens, UniProt Q14004); conditions: kinase CDK13/CycK, ATP 0,1 µM, singlicate
T13 construct: purchased Reaction Biology (assay service)
Experimental: as §1

350 wild-type kinases [14] = target: T14, 350 wild-type kinases (Homo sapiens, UniProt Q5VT25); conditions: kinase CDC42BPA, ATP 0,1 µM, singlicate
T14 construct: purchased Reaction Biology (assay service)
Experimental: as §1

350 wild-type kinases [15] = target: T15, 350 wild-type kinases (Homo sapiens, UniProt Q8IU85); conditions: kinase CAMK1D, ATP 0,3 µM, singlicate
T15 construct: purchased Reaction Biology (assay service)
Experimental: as §1

350 wild-type kinases [16] = target: T16, 350 wild-type kinases (Homo sapiens, UniProt Q8IWQ3); conditions: kinase BRSK2, ATP 1 µM, singlicate
T16 construct: purchased Reaction Biology (assay service)
Experimental: as §1

350 wild-type kinases [17] = target: T17, 350 wild-type kinases (Homo sapiens, UniProt Q8N5S9); conditions: kinase CAMKK1, ATP 3 µM, singlicate
T17 construct: purchased Reaction Biology (assay service)
Experimental: as §1

350 wild-type kinases [18] = target: T18, 350 wild-type kinases (Homo sapiens, UniProt Q8TDC3); conditions: kinase BRSK1, ATP 1 µM, singlicate
T18 construct: purchased Reaction Biology (assay service)
Experimental: as §1

350 wild-type kinases [19] = target: T19, 350 wild-type kinases (Homo sapiens, UniProt Q9HCP0); conditions: kinase CK1gamma1, ATP 0,1 µM, singlicate
T19 construct: purchased Reaction Biology (assay service)
Experimental: as §1

350 wild-type kinases [20] = target: T20, 350 wild-type kinases (Homo sapiens, UniProt Q9UIK4); conditions: kinase DAPK2, ATP 0,1 µM, singlicate
T20 construct: purchased Reaction Biology (assay service)
Experimental: as §1

350 wild-type kinases [21] = target: T21, 350 wild-type kinases (Homo sapiens, UniProt Q9UQM7); conditions: kinase CAMK2A, ATP 3 µM, singlicate
T21 construct: purchased Reaction Biology (assay service)
Experimental: as §1

350 wild-type kinases [22] = target: T22, 350 wild-type kinases (Homo sapiens, UniProt Q9Y5S2); conditions: kinase CDC42BPB, ATP 0,1 µM, singlicate
T22 construct: purchased Reaction Biology (assay service)
Experimental: as §1

350 wild-type kinases [23] = target: T23, 350 wild-type kinases (Homo sapiens, UniProt Q9Y6M4); conditions: kinase CK1gamma3, ATP 0,1 µM, singlicate
T23 construct: purchased Reaction Biology (assay service)
Experimental: as §1

350 wild-type kinases [24] = conditions: 10 μM, 350 kinases
Experimental: as §1

T1 sequence (P11802 whole entry): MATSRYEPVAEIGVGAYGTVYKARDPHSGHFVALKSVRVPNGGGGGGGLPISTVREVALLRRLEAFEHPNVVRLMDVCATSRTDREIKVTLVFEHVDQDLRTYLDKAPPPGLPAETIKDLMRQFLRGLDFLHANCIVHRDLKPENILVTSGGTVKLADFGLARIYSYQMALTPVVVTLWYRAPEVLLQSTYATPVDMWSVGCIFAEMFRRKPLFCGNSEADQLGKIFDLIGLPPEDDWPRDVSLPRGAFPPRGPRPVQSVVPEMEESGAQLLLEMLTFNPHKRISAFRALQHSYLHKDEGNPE
T9 sequence (Q00526 whole entry): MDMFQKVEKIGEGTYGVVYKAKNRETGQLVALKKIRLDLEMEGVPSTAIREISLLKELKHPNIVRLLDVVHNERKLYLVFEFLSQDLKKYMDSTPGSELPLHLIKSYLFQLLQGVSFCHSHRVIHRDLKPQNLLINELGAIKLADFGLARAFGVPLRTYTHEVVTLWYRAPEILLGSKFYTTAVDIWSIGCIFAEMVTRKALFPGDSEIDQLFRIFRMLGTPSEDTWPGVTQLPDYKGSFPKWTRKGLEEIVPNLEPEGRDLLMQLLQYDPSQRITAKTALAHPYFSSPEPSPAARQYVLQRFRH
T23 sequence (Q9Y6M4 whole entry): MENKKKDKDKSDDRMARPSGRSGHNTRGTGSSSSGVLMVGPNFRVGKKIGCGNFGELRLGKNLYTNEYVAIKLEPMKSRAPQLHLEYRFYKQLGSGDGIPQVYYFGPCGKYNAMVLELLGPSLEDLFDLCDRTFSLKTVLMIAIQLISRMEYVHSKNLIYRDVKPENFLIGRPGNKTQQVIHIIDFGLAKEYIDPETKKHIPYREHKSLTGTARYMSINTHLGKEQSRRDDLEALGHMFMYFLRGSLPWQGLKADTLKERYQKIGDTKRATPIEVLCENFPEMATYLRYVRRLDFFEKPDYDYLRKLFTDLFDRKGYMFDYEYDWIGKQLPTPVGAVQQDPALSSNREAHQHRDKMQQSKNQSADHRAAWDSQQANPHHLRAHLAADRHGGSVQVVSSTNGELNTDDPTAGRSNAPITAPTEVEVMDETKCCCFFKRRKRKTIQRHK
T15 sequence (Q8IU85 whole entry): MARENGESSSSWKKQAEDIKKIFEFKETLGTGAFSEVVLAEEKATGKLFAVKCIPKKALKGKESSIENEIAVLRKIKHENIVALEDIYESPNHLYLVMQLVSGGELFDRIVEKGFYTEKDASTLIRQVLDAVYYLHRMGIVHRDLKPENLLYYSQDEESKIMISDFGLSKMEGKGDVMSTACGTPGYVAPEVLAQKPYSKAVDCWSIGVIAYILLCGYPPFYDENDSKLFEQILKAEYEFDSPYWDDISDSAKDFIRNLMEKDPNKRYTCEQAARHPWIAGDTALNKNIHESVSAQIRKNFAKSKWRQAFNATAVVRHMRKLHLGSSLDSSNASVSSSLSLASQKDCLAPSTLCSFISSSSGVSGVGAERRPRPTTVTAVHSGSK
T22 sequence (Q9Y5S2 whole entry): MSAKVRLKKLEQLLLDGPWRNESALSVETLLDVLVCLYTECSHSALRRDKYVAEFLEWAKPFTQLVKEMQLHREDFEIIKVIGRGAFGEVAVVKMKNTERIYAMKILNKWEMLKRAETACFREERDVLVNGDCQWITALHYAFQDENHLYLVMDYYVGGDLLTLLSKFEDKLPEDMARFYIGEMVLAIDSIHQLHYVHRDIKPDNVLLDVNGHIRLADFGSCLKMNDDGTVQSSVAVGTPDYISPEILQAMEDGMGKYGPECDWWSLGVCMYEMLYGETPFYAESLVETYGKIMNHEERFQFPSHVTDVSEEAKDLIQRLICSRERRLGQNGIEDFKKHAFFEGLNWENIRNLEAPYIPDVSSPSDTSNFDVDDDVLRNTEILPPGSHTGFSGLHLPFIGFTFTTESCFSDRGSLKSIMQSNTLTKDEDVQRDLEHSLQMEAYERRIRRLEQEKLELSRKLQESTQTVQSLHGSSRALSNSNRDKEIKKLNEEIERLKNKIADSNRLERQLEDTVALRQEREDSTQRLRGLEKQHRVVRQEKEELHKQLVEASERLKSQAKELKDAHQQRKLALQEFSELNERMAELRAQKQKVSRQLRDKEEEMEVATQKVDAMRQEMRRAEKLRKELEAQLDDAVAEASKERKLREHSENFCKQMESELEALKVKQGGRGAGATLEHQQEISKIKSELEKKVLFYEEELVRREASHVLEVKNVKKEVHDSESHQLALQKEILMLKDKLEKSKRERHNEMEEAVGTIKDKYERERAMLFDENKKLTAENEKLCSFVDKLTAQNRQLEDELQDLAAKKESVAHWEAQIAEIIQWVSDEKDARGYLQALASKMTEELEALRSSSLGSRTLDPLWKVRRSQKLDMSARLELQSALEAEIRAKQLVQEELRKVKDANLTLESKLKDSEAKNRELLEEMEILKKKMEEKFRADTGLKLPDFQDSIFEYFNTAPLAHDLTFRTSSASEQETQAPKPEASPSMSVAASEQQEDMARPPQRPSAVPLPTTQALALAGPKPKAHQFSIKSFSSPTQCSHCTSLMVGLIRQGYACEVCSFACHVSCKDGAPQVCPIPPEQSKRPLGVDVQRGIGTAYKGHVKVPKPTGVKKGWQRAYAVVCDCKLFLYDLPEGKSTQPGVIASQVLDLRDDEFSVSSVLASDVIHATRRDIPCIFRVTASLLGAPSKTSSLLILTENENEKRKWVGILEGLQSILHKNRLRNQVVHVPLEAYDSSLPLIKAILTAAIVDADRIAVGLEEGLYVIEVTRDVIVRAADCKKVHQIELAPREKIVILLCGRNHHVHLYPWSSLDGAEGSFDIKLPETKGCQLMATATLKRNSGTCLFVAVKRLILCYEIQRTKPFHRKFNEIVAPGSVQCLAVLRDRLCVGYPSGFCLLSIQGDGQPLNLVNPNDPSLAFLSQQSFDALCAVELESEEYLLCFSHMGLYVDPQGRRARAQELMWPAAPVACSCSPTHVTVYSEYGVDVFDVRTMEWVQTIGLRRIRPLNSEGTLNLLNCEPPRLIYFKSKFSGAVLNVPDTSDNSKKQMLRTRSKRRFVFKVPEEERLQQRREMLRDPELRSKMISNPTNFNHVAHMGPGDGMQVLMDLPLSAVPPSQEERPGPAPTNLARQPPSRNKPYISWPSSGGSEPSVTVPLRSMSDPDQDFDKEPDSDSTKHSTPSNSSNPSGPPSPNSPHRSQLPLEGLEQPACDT
T17 sequence (Q8N5S9 whole entry): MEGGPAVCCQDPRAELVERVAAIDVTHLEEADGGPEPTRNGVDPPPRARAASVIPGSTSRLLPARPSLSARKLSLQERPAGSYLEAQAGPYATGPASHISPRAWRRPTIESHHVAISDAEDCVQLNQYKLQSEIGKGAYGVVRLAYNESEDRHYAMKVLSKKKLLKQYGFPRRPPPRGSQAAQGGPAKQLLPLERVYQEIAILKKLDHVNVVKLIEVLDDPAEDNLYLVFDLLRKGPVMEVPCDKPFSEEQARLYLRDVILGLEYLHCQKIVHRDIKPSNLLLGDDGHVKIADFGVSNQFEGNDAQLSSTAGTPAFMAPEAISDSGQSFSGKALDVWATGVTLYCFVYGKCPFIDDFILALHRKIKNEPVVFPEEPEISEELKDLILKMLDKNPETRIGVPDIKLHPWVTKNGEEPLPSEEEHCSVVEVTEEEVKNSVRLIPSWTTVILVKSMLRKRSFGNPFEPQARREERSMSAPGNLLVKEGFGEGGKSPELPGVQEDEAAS
T4 sequence (P31751 whole entry): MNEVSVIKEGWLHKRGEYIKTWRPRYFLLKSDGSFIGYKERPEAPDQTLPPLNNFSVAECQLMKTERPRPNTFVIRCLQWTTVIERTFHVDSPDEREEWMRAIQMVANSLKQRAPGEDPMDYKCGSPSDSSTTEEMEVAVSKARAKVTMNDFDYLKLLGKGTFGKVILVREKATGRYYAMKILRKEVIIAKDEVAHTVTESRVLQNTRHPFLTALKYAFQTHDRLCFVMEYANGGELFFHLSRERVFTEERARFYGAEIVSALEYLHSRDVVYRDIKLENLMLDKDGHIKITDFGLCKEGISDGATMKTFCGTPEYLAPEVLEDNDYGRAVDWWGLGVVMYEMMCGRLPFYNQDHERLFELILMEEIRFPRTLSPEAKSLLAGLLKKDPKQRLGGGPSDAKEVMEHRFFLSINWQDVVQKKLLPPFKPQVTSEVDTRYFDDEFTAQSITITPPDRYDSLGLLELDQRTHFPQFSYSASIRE
T19 sequence (Q9HCP0 whole entry): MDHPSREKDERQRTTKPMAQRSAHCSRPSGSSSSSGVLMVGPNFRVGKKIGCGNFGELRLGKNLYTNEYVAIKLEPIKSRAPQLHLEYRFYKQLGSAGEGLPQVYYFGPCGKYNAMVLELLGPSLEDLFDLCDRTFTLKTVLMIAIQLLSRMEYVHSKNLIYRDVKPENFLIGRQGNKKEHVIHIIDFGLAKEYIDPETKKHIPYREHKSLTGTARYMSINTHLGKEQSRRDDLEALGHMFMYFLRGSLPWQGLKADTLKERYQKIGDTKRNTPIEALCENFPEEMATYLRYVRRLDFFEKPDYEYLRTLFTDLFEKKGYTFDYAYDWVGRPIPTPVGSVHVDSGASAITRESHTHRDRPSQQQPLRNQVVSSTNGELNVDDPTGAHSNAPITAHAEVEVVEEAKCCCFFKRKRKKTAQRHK
T6 sequence (P48729 whole entry): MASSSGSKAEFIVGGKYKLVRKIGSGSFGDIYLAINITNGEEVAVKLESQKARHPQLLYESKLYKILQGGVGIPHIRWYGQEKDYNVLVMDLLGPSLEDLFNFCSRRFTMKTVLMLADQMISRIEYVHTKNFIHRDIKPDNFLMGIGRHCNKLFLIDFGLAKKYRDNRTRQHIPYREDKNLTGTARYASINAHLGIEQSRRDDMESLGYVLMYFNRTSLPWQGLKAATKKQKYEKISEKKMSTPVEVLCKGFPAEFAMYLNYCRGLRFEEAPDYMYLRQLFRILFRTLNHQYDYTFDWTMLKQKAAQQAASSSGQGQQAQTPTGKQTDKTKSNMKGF

CCSc1nc(NC)c2c(-c3cccc(NC(=O)Nc4cc(C(C)(C)C)nn4-c4ccc(C)cc4)c3)c[nH]c2n1 [Compound 32]
Residual activity (% of control), CDK4/CycD1 (350 wild-type kinases [1]; Assay Conc. 1.0E-05 M): 57 % of control
Residual activity (% of control), CDK4/CycD1 (350 wild-type kinases [1]; Assay Conc. 1.0E-06 M): 87 % of control
Residual activity (% of control), CDK4/CycD2 (350 wild-type kinases [1]; Assay Conc. 1.0E-05 M): 49 % of control
Residual activity (% of control), CDK4/CycD2 (350 wild-type kinases [1]; Assay Conc. 1.0E-06 M): 111 % of control
Residual activity (% of control), CDK4/CycD3 (350 wild-type kinases [1]; Assay Conc. 1.0E-05 M): 87 % of control
Residual activity (% of control), CDK4/CycD3 (350 wild-type kinases [1]; Assay Conc. 1.0E-06 M): 102 % of control
Residual activity (% of control), BRAF (350 wild-type kinases [2]; Assay Conc. 1.0E-05 M): 65 % of control
Residual activity (% of control), BRAF (350 wild-type kinases [2]; Assay Conc. 1.0E-06 M): 98 % of control
Residual activity (% of control), AKT1 (350 wild-type kinases [3]; Assay Conc. 1.0E-05 M): 91 % of control
Residual activity (% of control), AKT1 (350 wild-type kinases [3]; Assay Conc. 1.0E-06 M): 103 % of control
Residual activity (% of control), AKT2 (350 wild-type kinases [4]; Assay Conc. 1.0E-05 M): 88 % of control
Residual activity (% of control), AKT2 (350 wild-type kinases [4]; Assay Conc. 1.0E-06 M): 117 % of control
Residual activity (% of control), ACVRL1 (350 wild-type kinases [5]; Assay Conc. 1.0E-05 M): 80 % of control
Residual activity (% of control), ACVRL1 (350 wild-type kinases [5]; Assay Conc. 1.0E-06 M): 97 % of control
Residual activity (% of control), CK1alpha1 (350 wild-type kinases [6]; Assay Conc. 1.0E-05 M): 98 % of control
Residual activity (% of control), CK1alpha1 (350 wild-type kinases [6]; Assay Conc. 1.0E-06 M): 108 % of control
Residual activity (% of control), CDK7/CycH/MAT1 (350 wild-type kinases [7]; Assay Conc. 1.0E-05 M): 75 % of control
Residual activity (% of control), CDK7/CycH/MAT1 (350 wild-type kinases [7]; Assay Conc. 1.0E-06 M): 100 % of control
Residual activity (% of control), DAPK1 (350 wild-type kinases [8]; Assay Conc. 1.0E-05 M): 78 % of control
Residual activity (% of control), DAPK1 (350 wild-type kinases [8]; Assay Conc. 1.0E-06 M): 95 % of control
Residual activity (% of control), CDK3/CycC (350 wild-type kinases [9]; Assay Conc. 1.0E-05 M): 65 % of control
Residual activity (% of control), CDK3/CycC (350 wild-type kinases [9]; Assay Conc. 1.0E-06 M): 106 % of control
Residual activity (% of control), CDK3/CycE1 (350 wild-type kinases [9]; Assay Conc. 1.0E-05 M): 75 % of control
Residual activity (% of control), CDK3/CycE1 (350 wild-type kinases [9]; Assay Conc. 1.0E-06 M): 115 % of control
Residual activity (% of control), CDK16/CycY (350 wild-type kinases [10]; Assay Conc. 1.0E-05 M): 88 % of control
Residual activity (% of control), CDK16/CycY (350 wild-type kinases [10]; Assay Conc. 1.0E-06 M): 113 % of control
Residual activity (% of control), ACVR1 (350 wild-type kinases [11]; Assay Conc. 1.0E-05 M): 93 % of control
Residual activity (% of control), ACVR1 (350 wild-type kinases [11]; Assay Conc. 1.0E-06 M): 107 % of control
Residual activity (% of control), CAMK2B (350 wild-type kinases [12]; Assay Conc. 1.0E-05 M): 83 % of control
Residual activity (% of control), CAMK2B (350 wild-type kinases [12]; Assay Conc. 1.0E-06 M): 116 % of control
Residual activity (% of control), CDK13/CycK (350 wild-type kinases [13]; Assay Conc. 1.0E-05 M): 71 % of control
Residual activity (% of control), CDK13/CycK (350 wild-type kinases [13]; Assay Conc. 1.0E-06 M): 83 % of control
Residual activity (% of control), CDC42BPA (350 wild-type kinases [14]; Assay Conc. 1.0E-05 M): 111 % of control
Residual activity (% of control), CDC42BPA (350 wild-type kinases [14]; Assay Conc. 1.0E-06 M): 122 % of control
Residual activity (% of control), CAMK1D (350 wild-type kinases [15]; Assay Conc. 1.0E-05 M): 101 % of control
Residual activity (% of control), CAMK1D (350 wild-type kinases [15]; Assay Conc. 1.0E-06 M): 113 % of control
Residual activity (% of control), BRSK2 (350 wild-type kinases [16]; Assay Conc. 1.0E-05 M): 84 % of control
Residual activity (% of control), BRSK2 (350 wild-type kinases [16]; Assay Conc. 1.0E-06 M): 103 % of control
Residual activity (% of control), CAMKK1 (350 wild-type kinases [17]; Assay Conc. 1.0E-05 M): 122 % of control
Residual activity (% of control), CAMKK1 (350 wild-type kinases [17]; Assay Conc. 1.0E-06 M): 114 % of control
Residual activity (% of control), BRSK1 (350 wild-type kinases [18]; Assay Conc. 1.0E-05 M): 89 % of control
Residual activity (% of control), BRSK1 (350 wild-type kinases [18]; Assay Conc. 1.0E-06 M): 101 % of control
Residual activity (% of control), CK1gamma1 (350 wild-type kinases [19]; Assay Conc. 1.0E-05 M): 97 % of control
Residual activity (% of control), CK1gamma1 (350 wild-type kinases [19]; Assay Conc. 1.0E-06 M): 92 % of control
Residual activity (% of control), DAPK2 (350 wild-type kinases [20]; Assay Conc. 1.0E-05 M): 88 % of control
Residual activity (% of control), DAPK2 (350 wild-type kinases [20]; Assay Conc. 1.0E-06 M): 93 % of control
Residual activity (% of control), CAMK2A (350 wild-type kinases [21]; Assay Conc. 1.0E-05 M): 63 % of control
Residual activity (% of control), CAMK2A (350 wild-type kinases [21]; Assay Conc. 1.0E-06 M): 94 % of control
Residual activity (% of control), CDC42BPB (350 wild-type kinases [22]; Assay Conc. 1.0E-05 M): 57 % of control
Residual activity (% of control), CDC42BPB (350 wild-type kinases [22]; Assay Conc. 1.0E-06 M): 84 % of control
Residual activity (% of control), CK1gamma3 (350 wild-type kinases [23]; Assay Conc. 1.0E-05 M): 99 % of control
Residual activity (% of control), CK1gamma3 (350 wild-type kinases [23]; Assay Conc. 1.0E-06 M): 106 % of control
number of kinases inhibited with less than 30% residual activity (350 wild-type kinases [24]): 10
